Assay results from PubChem BioAssay (NCI).
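Grown in 96-well plates, cells were treated for 48 hours with each compound at five concentrations. Insufficient inhibition: endpoint recorded as highest concentration tested. GI50 marks 50% less growth. TGI is the concentration that stops growth completely.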

Tests used:
Experiment in all cases: NCI anticancer screen, dose series, 48 h
786-0 renal = test system: 786-0 renal
A498 renal = test system: A498 renal
A549 NSCLC = test system: A549 NSCLC
ACHN renal = test system: ACHN renal
BT-549 breast = test system: BT-549 breast
CAKI-1 renal = test system: CAKI-1 renal
CCRF-CEM leukemia = test system: CCRF-CEM leukemia
COLO 205 colon = test system: COLO 205 colon
DU-145 prostate = test system: DU-145 prostate
EKVX NSCLC = test system: EKVX NSCLC
HCC-2998 colon = test system: HCC-2998 colon
HCT-116 colon = test system: HCT-116 colon
HCT-15 colon = test system: HCT-15 colon
HL-60(TB) leukemia = test system: HL-60(TB) leukemia
HOP-62 NSCLC = test system: HOP-62 NSCLC
HOP-92 NSCLC = test system: HOP-92 NSCLC
HS 578T breast = test system: HS 578T breast
HT29 colon = test system: HT29 colon
IGROV1 ovarian = test system: IGROV1 ovarian
K-562 leukemia = test system: K-562 leukemia
KM12 colon = test system: KM12 colon
LOX IMVI melanoma = test system: LOX IMVI melanoma
M14 melanoma = test system: M14 melanoma
MALME-3M melanoma = test system: MALME-3M melanoma
MCF7 breast = test system: MCF7 breast
MDA-MB-231 breast = test system: MDA-MB-231 breast
MDA-MB-435 = test system: MDA-MB-435
MDA-MB-468 breast = test system: MDA-MB-468 breast
MOLT-4 leukemia = test system: MOLT-4 leukemia
NCI-H226 lung = test system: NCI-H226 lung
NCI-H23 lung = test system: NCI-H23 lung
NCI-H460 lung = test system: NCI-H460 lung
NCI-H522 lung = test system: NCI-H522 lung
NCI/ADR-RES ovarian = test system: NCI/ADR-RES ovarian
OVCAR-3 ovarian = test system: OVCAR-3 ovarian
OVCAR-4 ovarian = test system: OVCAR-4 ovarian
OVCAR-5 ovarian = test system: OVCAR-5 ovarian
OVCAR-8 ovarian = test system: OVCAR-8 ovarian
PC-3 prostate = test system: PC-3 prostate
RPMI-8226 leukemia = test system: RPMI-8226 leukemia
RXF 393 renal = test system: RXF 393 renal
SF-268 CNS = test system: SF-268 CNS
SF-295 CNS = test system: SF-295 CNS
SF-539 CNS = test system: SF-539 CNS
SK-MEL-2 melanoma = test system: SK-MEL-2 melanoma
SK-MEL-28 melanoma = test system: SK-MEL-28 melanoma
SK-MEL-5 melanoma = test system: SK-MEL-5 melanoma
SK-OV-3 ovarian = test system: SK-OV-3 ovarian
SN12C renal = test system: SN12C renal
SNB-19 CNS = test system: SNB-19 CNS
SNB-75 CNS = test system: SNB-75 CNS
SR leukemia = test system: SR leukemia
SW-620 colon = test system: SW-620 colon
T-47D breast = test system: T-47D breast
TK-10 renal = test system: TK-10 renal
U251 CNS = test system: U251 CNS
UACC-257 melanoma = test system: UACC-257 melanoma
UACC-62 melanoma = test system: UACC-62 melanoma
UO-31 renal = test system: UO-31 renal

`O=C(N=Nc1c(O)[nH]c2ccc(Cl)cc12)c1ccc2nc(-c3ccc(Cl)cc3)[nH]c2c1` gave a GI50 (786-0 renal) of 3.08 µM, a TGI (786-0 renal) of 21.2 µM and a GI50 (A498 renal) of 18.4 µM. For the same compound, the TGI (A498 renal) was 57 µM, the GI50 (A549 NSCLC) was 29 µM and the TGI (A549 NSCLC) was greater than 57.7 µM. For the same compound, the GI50 (ACHN renal) was 23.5 µM, the TGI (ACHN renal) was greater than 57.7 µM and the GI50 (BT-549 breast) was 7.12 µM. For the same compound, the TGI (BT-549 breast) was 25.8 µM, the GI50 (CAKI-1 renal) was greater than 57.7 µM and the TGI (CAKI-1 renal) was greater than 57.7 µM. For the same compound, the GI50 (CCRF-CEM leukemia) was 0.969 µM, the TGI (CCRF-CEM leukemia) was 4.39 µM and the GI50 (COLO 205 colon) was 2.27 µM. For the same compound, the TGI (COLO 205 colon) was 10.5 µM, the GI50 (DU-145 prostate) was 3.74 µM and the TGI (DU-145 prostate) was greater than 57.7 µM. It also gave a GI50 (EKVX NSCLC) of 16.6 µM, a TGI (EKVX NSCLC) greater than 57.7 µM and a GI50 (HCC-2998 colon) of 3.4 µM. The TGI (HCC-2998 colon) was greater than 57.7 µM, the GI50 (HCT-116 colon) was 2.35 µM and the TGI (HCT-116 colon) was greater than 57.7 µM. The GI50 (HCT-15 colon) was greater than 57.7 µM, the TGI (HCT-15 colon) was greater than 57.7 µM and the GI50 (HL-60(TB) leukemia) was 10.1 µM. The TGI (HL-60(TB) leukemia) was greater than 57.7 µM, the GI50 (HOP-62 NSCLC) was 6.93 µM and the TGI (HOP-62 NSCLC) was 24 µM. The GI50 (HOP-92 NSCLC) was 8.67 µM, the TGI (HOP-92 NSCLC) was 39 µM and the GI50 (HS 578T breast) was 2.67 µM. It also gave a TGI (HS 578T breast) of 41.3 µM, a GI50 (HT29 colon) of 2.33 µM and a TGI (HT29 colon) greater than 57.7 µM. The GI50 (IGROV1 ovarian) was 3.64 µM, the TGI (IGROV1 ovarian) was greater than 57.7 µM and the GI50 (K-562 leukemia) was 1.62 µM. The TGI (K-562 leukemia) was greater than 57.7 µM, the GI50 (KM12 colon) was greater than 57.7 µM and the TGI (KM12 colon) was greater than 57.7 µM. The GI50 (LOX IMVI melanoma) was 1.07 µM, the TGI (LOX IMVI melanoma) was 2.32 µM and the GI50 (M14 melanoma) was 3.82 µM. It also gave a TGI (M14 melanoma) greater than 57.7 µM, a GI50 (MALME-3M melanoma) of 2.27 µM and a TGI (MALME-3M melanoma) of 10.9 µM. It also gave a GI50 (MCF7 breast) of 1.39 µM, a TGI (MCF7 breast) greater than 57.7 µM and a GI50 (MDA-MB-231 breast) of 1.51 µM. It also gave a TGI (MDA-MB-231 breast) of 4.74 µM, a GI50 (MDA-MB-435) of 2.05 µM and a TGI (MDA-MB-435) of 13.3 µM. For the same compound, the GI50 (MDA-MB-468 breast) was 1.4 µM, the TGI (MDA-MB-468 breast) was 4.88 µM and the GI50 (MOLT-4 leukemia) was 1.42 µM. For the same compound, the TGI (MOLT-4 leukemia) was 16.5 µM, the GI50 (NCI-H226 lung) was 13.7 µM and the TGI (NCI-H226 lung) was greater than 57.7 µM. For the same compound, the GI50 (NCI-H23 lung) was 2.22 µM, the TGI (NCI-H23 lung) was 9.84 µM and the GI50 (NCI-H460 lung) was 2.38 µM. The TGI (NCI-H460 lung) was greater than 57.7 µM, the GI50 (NCI-H522 lung) was 3.73 µM and the TGI (NCI-H522 lung) was 27.2 µM. The GI50 (NCI/ADR-RES ovarian) was greater than 57.7 µM, the TGI (NCI/ADR-RES ovarian) was greater than 57.7 µM and the GI50 (OVCAR-3 ovarian) was 5.2 µM. It also gave a TGI (OVCAR-3 ovarian) greater than 57.7 µM, a GI50 (OVCAR-4 ovarian) of 1.98 µM and a TGI (OVCAR-4 ovarian) of 18.8 µM. The GI50 (OVCAR-5 ovarian) was 3.5 µM, the TGI (OVCAR-5 ovarian) was greater than 57.7 µM and the GI50 (OVCAR-8 ovarian) was 4.42 µM. For the same compound, the TGI (OVCAR-8 ovarian) was greater than 57.7 µM, the GI50 (PC-3 prostate) was 7.5 µM and the TGI (PC-3 prostate) was greater than 57.7 µM. For the same compound, the GI50 (RPMI-8226 leukemia) was greater than 57.7 µM, the TGI (RPMI-8226 leukemia) was greater than 57.7 µM and the GI50 (RXF 393 renal) was 2.99 µM. It also gave a TGI (RXF 393 renal) of 19.4 µM, a GI50 (SF-268 CNS) of 1.78 µM and a TGI (SF-268 CNS) of 10.6 µM. It also gave a GI50 (SF-295 CNS) of 2.97 µM, a TGI (SF-295 CNS) of 20.2 µM and a GI50 (SF-539 CNS) of 2.11 µM. It also gave a TGI (SF-539 CNS) of 8.18 µM, a GI50 (SK-MEL-2 melanoma) of 41.5 µM and a TGI (SK-MEL-2 melanoma) greater than 57.7 µM. It also gave a GI50 (SK-MEL-28 melanoma) of 6.25 µM, a TGI (SK-MEL-28 melanoma) of 49.7 µM and a GI50 (SK-MEL-5 melanoma) greater than 57.7 µM. For the same compound, the TGI (SK-MEL-5 melanoma) was greater than 57.7 µM, the GI50 (SK-OV-3 ovarian) was 15.5 µM and the TGI (SK-OV-3 ovarian) was greater than 57.7 µM. The GI50 (SN12C renal) was 2.53 µM, the TGI (SN12C renal) was 33.2 µM and the GI50 (SNB-19 CNS) was 2.05 µM. For the same compound, the TGI (SNB-19 CNS) was 10.7 µM, the GI50 (SNB-75 CNS) was 1.74 µM and the TGI (SNB-75 CNS) was 14 µM. For the same compound, the GI50 (SR leukemia) was 3.29 µM, the TGI (SR leukemia) was greater than 57.7 µM and the GI50 (SW-620 colon) was 1.91 µM. The TGI (SW-620 colon) was greater than 57.7 µM, the GI50 (T-47D breast) was 2 µM and the TGI (T-47D breast) was 44.3 µM. The GI50 (TK-10 renal) was 40.9 µM, the TGI (TK-10 renal) was greater than 57.7 µM and the GI50 (U251 CNS) was 1.75 µM. For the same compound, the TGI (U251 CNS) was 6.46 µM, the GI50 (UACC-257 melanoma) was 40 µM and the TGI (UACC-257 melanoma) was greater than 57.7 µM. The GI50 (UACC-62 melanoma) was 4.64 µM, the TGI (UACC-62 melanoma) was 26.6 µM and the GI50 (UO-31 renal) was greater than 57.7 µM. It also gave a TGI (UO-31 renal) greater than 57.7 µM.
